In patent US20230065745A1, “PIPERIDINE-2,6-DIONE DERIVATIVES WHICH BIND TO CEREBLON, AND METHODS OF USE THEREOF” (Captor Therapeutics S.A., priority 2019, published 2023):

How the values were obtained:
CK1α = CK1α degradation assay, Kelly cell line (Western blot densitometry); assay type: cell-based; details: 24 h
Experimental: Cells were seeded on 6-well plates, and the compounds to be tested were added at the desired concentration range. […] After 24 h incubation (37° C., 5% CO2), cells were washed and cell lysates were prepared using RIPA lysis buffer. The amount of protein was determined via BCA assay, and the appropriate quantity was then loaded on the precast gel for the protein separation. After primary and secondary Ab staining, the membranes were washed and signals developed. The densitometry analysis was implemented to obtain the numeric values used later in the protein level evaluation process.
(§1) The treatment with all compounds was carried out for 24 h.
(§2) Densitometry values are normalized to the loading control ((3-ACTIN) and presented as % of DMSO control, using the following labels: […]

IKZF1 = IKZF1 degradation assay, H929 cell line (Western blot densitometry); assay type: cell-based; details: for % of IKZF1 protein reduction, based on densitometry values: 24 h
Experimental: Cells were seeded on 6- or 12-well plates, and the compounds to be tested were added at the desired concentration range. […] After 6 or 24 h incubation (3TC, 5% CO2), cells were harvested, washed and cell lysates were prepared using RIPA lysis buffer. The amount of protein was determined via BCA assay, and the appropriate quantity was then loaded on the precast gel for the protein separation. After primary and secondary Ab staining, the membranes were washed and signals developed. The densitometry analysis was implemented to obtain the numeric values used later in the protein level evaluation process. […] The treatment with all compounds was carried out for 24 h.

IKZF3 = IKZF3 degradation assay, H929 cell line (Western blot densitometry); assay type: cell-based; details: 24 h
Experimental: Cells were seeded on 6- or 12-well plates, and the compounds to be tested were added at the desired concentration range. […] After 24 h incubation (3TC, 5% CO2), cells were harvested, washed and cell lysates were prepared using RIPA lysis buffer. The amount of protein was determined via BCA assay, and the appropriate quantity was then loaded on the precast gel for the protein separation. After primary and secondary Ab staining, the membranes were washed and signals developed. The densitometry analysis was implemented to obtain the numeric values used later in the protein level evaluation process.
as §1, §2

[1] = biological target: CRBN-DDB1 protein complex (Homo sapiens, UniProt Q96SW2); assay: Fluorescence Polarization (FP) assay, displacement of Cy5-labelled thalidomide; details: 25 nM CRBN-DDB1, 5 nM Cy5-labelled thalidomide, read-out: CRBN binding Ki
Experimental: CRBN-DDB1 protein complex was mixed with Cy5-labelled thalidomide and a compound to be tested (the “test compound”). […] The test solution was added to a 384-well assay plate.
The plate was spun-down (1 min, 1000 rpm, 22° C.) and then shaken using a VibroTurbulator for 10 min at room temperature (20-25° C.), with the frequency set to level 3. The assay plate with protein and the tracer was incubated for 60 min at room temperature (20-25° C.) prior to read-out with a plate reader.
The FP experiment was carried out with various concentrations of the test compounds in order to measure Ki values.

Chain of CRBN-DDB1 protein complex (Q96SW2 whole entry): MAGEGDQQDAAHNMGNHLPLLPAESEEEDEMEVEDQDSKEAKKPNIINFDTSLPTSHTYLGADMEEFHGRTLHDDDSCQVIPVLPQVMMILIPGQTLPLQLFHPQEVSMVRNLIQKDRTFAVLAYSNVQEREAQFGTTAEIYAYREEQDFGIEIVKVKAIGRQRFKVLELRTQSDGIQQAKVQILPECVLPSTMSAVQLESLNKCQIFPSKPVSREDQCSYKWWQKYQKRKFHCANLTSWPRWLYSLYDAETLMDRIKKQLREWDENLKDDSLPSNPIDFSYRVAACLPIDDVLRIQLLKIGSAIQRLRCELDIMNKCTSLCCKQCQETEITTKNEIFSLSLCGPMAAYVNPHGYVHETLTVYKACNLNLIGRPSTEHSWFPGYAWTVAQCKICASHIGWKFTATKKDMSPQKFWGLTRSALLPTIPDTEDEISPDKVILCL
Chain of CRBN-DDB1 protein complex (Q16531 whole entry partner): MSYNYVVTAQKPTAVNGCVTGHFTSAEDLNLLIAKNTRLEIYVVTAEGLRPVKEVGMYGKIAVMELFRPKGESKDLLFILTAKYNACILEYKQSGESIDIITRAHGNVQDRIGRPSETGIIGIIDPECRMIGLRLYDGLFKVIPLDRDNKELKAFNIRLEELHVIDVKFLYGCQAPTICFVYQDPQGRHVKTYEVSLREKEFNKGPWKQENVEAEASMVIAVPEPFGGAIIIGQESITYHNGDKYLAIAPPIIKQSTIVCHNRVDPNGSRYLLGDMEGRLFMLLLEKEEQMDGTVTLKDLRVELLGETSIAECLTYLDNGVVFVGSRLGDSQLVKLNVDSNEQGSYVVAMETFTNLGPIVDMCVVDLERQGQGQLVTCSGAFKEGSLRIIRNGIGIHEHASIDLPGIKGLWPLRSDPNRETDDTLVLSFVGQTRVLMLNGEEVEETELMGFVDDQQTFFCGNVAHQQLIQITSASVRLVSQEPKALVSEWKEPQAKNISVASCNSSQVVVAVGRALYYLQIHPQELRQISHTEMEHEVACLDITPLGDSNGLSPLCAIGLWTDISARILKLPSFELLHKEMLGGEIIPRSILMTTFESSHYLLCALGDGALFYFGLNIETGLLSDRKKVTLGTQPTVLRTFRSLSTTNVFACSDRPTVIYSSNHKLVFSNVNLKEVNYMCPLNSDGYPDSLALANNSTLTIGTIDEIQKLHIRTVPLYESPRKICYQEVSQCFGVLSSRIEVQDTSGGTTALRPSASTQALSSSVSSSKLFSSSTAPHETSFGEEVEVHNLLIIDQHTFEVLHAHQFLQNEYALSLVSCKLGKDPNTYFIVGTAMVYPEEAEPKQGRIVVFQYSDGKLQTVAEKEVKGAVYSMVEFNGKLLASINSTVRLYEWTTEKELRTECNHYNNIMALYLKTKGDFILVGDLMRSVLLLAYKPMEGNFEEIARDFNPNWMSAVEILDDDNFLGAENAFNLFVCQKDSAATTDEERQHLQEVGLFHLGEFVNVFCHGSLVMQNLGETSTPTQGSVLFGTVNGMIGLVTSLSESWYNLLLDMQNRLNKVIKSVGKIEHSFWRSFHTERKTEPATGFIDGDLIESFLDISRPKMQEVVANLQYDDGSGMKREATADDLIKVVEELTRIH

| Compound | Ki [1] [µM] | % of CK1α protein reduction, based on densitometry values (CK1α; 20 μM) | % of IKZF1 protein reduction, based on densitometry values (IKZF1; 1 μM) | % of IKZF1 protein reduction, based on densitometry values (IKZF1; 10 μM) | % of IKZF1 protein reduction, IKZF 1 (24 H, 20 μM) (IKZF1) | % of IKZF3 protein reduction, based on densitometry values (IKZF3; 1 μM) | % of IKZF3 protein reduction, based on densitometry values (IKZF3; 10 μM) | % of CK1α protein reduction, based on densitometry values (CK1α; 1 μM) | % of CK1α protein reduction, based on densitometry values (CK1α; 10 μM) | CK1α degradation (in words) (CK1α) |
| --- | --- | --- | --- | --- | --- | --- | --- | --- | --- | --- |
| Cc1nc2cccc(N)c2c(=O)n1C1CCC(=O)NC1=O (stereo not shown) [CC-122, reference compound] | – | ≤25% (≤25% for 0-25% of CK1α protein reduction) | ≥75% (≥75% for 75-100% of IKZF1 protein reduction) | ≥75% (≥75% for 75-100% of IKZF1 protein reduction) | – | ≥75% (≥75% for 75-100% of IKZF3 protein reduction) | ≥75% (≥75% for 75-100% of IKZF3 protein reduction) | ≤25% (≤25% for 0-25% of CK1α protein reduction) | ≤25% (≤25% for 0-25% of CK1α protein reduction) | lack of degradation |
| Nc1cccc2c1C(=O)N(C1CCC(=O)NC1=O)C2=O (stereo not shown) [Pomalidomide, pomalidomide, reference compound] | – | >25% (>25% for 26-74% of CK1α protein reduction) | ≥75% (≥75% for 75-100% of IKZF1 protein reduction) | ≥75% (≥75% for 75-100% of IKZF1 protein reduction) | ≥75% (≥75% for 75-100% of IKZF1 protein reduction) | ≥75% (≥75% for 75-100% of IKZF3 protein reduction) | ≥75% (≥75% for 75-100% of IKZF3 protein reduction) | >25% (>25% for 26-74% of CK1α protein reduction) | >25% (>25% for 26-74% of CK1α protein reduction) | to a lesser degree |
| COc1sccc1C(=O)NC1CCC(=O)NC1=O (stereo not shown) [Compound 20, N-(2,6-dioxopiperidin-3-yl)-2-methoxythiophene-3-carboxamide] | < 5 | – | ≤25% (≤25% for 0-25% of IKZF1 protein reduction) | ≤25% (≤25% for 0-25% of IKZF1 protein reduction) | ≤25% (≤25% for 0-25% of IKZF1 protein reduction) | ≤25% (≤25% for 0-25% of IKZF3 protein reduction) | ≤25% (≤25% for 0-25% of IKZF3 protein reduction) | – | – | – |
| CNC(=O)c1cc(C(=O)NC2CCC(=O)NC2=O)c(NC(C)=O)s1 (stereo not shown) [Compound 14, 5-acetamido-N^4-(2,6-dioxopiperidin-3-yl)-5-acetamido-N^2-methylthiophene-2,4-dicarboxamide] | 5 to 10 | – | – | – | ≤25% (≤25% for 0-25% of IKZF1 protein reduction) | – | – | – | – | – |
| CS(=O)(=O)Nc1sccc1C(=O)NC1CCC(=O)NC1=O (stereo not shown) [Compound 13, N-(2,6-dioxopiperidin-3-yl)-2-methanesulfonamidothiophene-3-carboxamide] | 5 to 10 | – | – | – | ≤25% (≤25% for 0-25% of IKZF1 protein reduction) | – | – | – | – | – |
| CC(=O)Nc1sc(Cl)cc1C(=O)NC1CCC(=O)NC1=O (stereo not shown) [Compound 12, 5-Chloro-N-(2,6-dioxopiperidin-3-yl)-2-acetamidothiophene-3-carboxamide] | 5 to 10 | – | – | – | ≤25% (≤25% for 0-25% of IKZF1 protein reduction) | – | – | – | – | – |

Further lines, with some results ahead:

| Ki [1] [µM] | Compound | % of CK1α protein reduction, based on densitometry values (CK1α; 20 μM) | % of IKZF1 protein reduction, based on densitometry values (IKZF1; 1 μM) | % of IKZF1 protein reduction, based on densitometry values (IKZF1; 10 μM) | % of IKZF1 protein reduction, IKZF 1 (24 H, 20 μM) (IKZF1) | % of IKZF3 protein reduction, based on densitometry values (IKZF3; 1 μM) | % of IKZF3 protein reduction, based on densitometry values (IKZF3; 10 μM) | % of CK1α protein reduction, based on densitometry values (CK1α; 1 μM) | % of CK1α protein reduction, based on densitometry values (CK1α; 10 μM) | CK1α degradation (in words) (CK1α) |
| --- | --- | --- | --- | --- | --- | --- | --- | --- | --- | --- |
| < 5 | COc1ccsc1C(=O)NC1CCC(=O)NC1=O (stereo not shown) [Compound 108, N-(2,6-dioxopiperidin-3-yl)-3-methoxythiophene-2-carboxamide] | >25% (>25% for 26-74% of CK1α protein reduction) | ≤25% (≤25% for 0-25% of IKZF1 protein reduction) | ≤25% (≤25% for 0-25% of IKZF1 protein reduction) | ≤25% (≤25% for 0-25% of IKZF1 protein reduction) | ≤25% (≤25% for 0-25% of IKZF3 protein reduction) | ≤25% (≤25% for 0-25% of IKZF3 protein reduction) | – | – | – |
| < 5 | COc1cscc1C(=O)NC1CCC(=O)NC1=O (stereo not shown) [Compound 54, N-(2,6-dioxopiperidin-3-yl)-4-methoxythiophene-3-carboxamide] | >25% (>25% for 26-74% of CK1α protein reduction) | – | – | – | – | – | >25% (>25% for 26-74% of CK1α protein reduction) | >25% (>25% for 26-74% of CK1α protein reduction) | – |
| < 5 | O=C1CCC(NC(=O)c2sc(Cl)c3cccnc23)C(=O)N1 (stereo not shown) [Compound 106, 5-chloro-N-(2,6-dioxopiperidin-3-yl)thieno[3,4-b]pyridine-7-carboxamide] | – | ≤25% (≤25% for 0-25% of IKZF1 protein reduction) | ≤25% (≤25% for 0-25% of IKZF1 protein reduction) | ≤25% (≤25% for 0-25% of IKZF1 protein reduction) | ≤25% (≤25% for 0-25% of IKZF3 protein reduction) | ≤25% (≤25% for 0-25% of IKZF3 protein reduction) | – | – | – |
| < 5 | O=C1CCC(NC(=O)c2scc3cccnc23)C(=O)N1 (stereo not shown) [Compound 107, N-(2,6-dioxopiperidin-3-yl)thieno[3,4-b]pyridine-7-carboxamide] | – | ≤25% (≤25% for 0-25% of IKZF1 protein reduction) | ≤25% (≤25% for 0-25% of IKZF1 protein reduction) | – | ≤25% (≤25% for 0-25% of IKZF3 protein reduction) | ≤25% (≤25% for 0-25% of IKZF3 protein reduction) | – | – | – |
| 5 to 10 | CC(=O)Nc1sc(C(F)(F)F)cc1C(=O)NC1CCC(=O)NC1=O (stereo not shown) [Compound 42, N-(2,6-dioxopiperidin-3-yl)-2-acetamido-5-(trifluoromethyl)thiophene-3-carboxamide] | – | – | – | ≤25% (≤25% for 0-25% of IKZF1 protein reduction) | – | – | – | – | – |
| 10 to 50 | COc1sccc1C(=O)N[C@@H]1CCC(=O)NC1=O [Compound 22, (R)—N-(2,6-dioxopiperidin-3-yl)-2-methoxythiophene-3-carboxamide] | >25% (>25% for 26-74% of CK1α protein reduction) | – | – | ≤25% (≤25% for 0-25% of IKZF1 protein reduction) | – | – | – | – | – |
| < 5 | COc1sccc1C(=O)N[C@H]1CCC(=O)NC1=O [Compound 21, (S)—N-(2,6-dioxopiperidin-3-yl)-2-methoxythiophene-3-carboxamide] | >25% (>25% for 26-74% of CK1α protein reduction) | – | – | ≤25% (≤25% for 0-25% of IKZF1 protein reduction) | – | – | – | – | – |
| 10 to 50 | COCc1ncc(C(=O)NC2CCC(=O)NC2=O)s1 (stereo not shown) [Compound 111, N-(2,6-dioxopiperidin-3-yl)-2-(methoxymethyl)thiazole-5-carboxamide] | – | ≤25% (≤25% for 0-25% of IKZF1 protein reduction) | ≤25% (≤25% for 0-25% of IKZF1 protein reduction) | ≤25% (≤25% for 0-25% of IKZF1 protein reduction) | ≤25% (≤25% for 0-25% of IKZF3 protein reduction) | ≤25% (≤25% for 0-25% of IKZF3 protein reduction) | – | – | – |
| 10 to 50 | COc1ncc(C(=O)NC2CCC(=O)NC2=O)s1 (stereo not shown) [Compound 75, N-(2,6-dioxopiperidin-3-yl)-2-methoxythiazole-5-carboxamide] | – | – | – | ≤25% (≤25% for 0-25% of IKZF1 protein reduction) | – | – | – | – | – |
